According to the NIST ThermoML archive (doi:10.1021/je700322p):

Conditions: Liquid

CCOC(C)=O [ethyl acetate]
Conditions	vapor or sublimation pressure [kPa]
310 K	21.72
313 K	24.78
316 K	28.18
319 K	31.95
322 K	36.12
325 K	40.73
328 K	45.8
331 K	51.36
334 K	57.46
337 K	64.13
340 K	71.4
343 K	79.32
346 K	87.93
349 K	97.26
352 K	107.36
355 K	118.27
358 K	130.03
359 K	134.15

CCO [ethanol]
Conditions	vapor or sublimation pressure [kPa]
321 K	26.41
324 K	30.53
327 K	35.19
330 K	40.44
333 K	46.34
336 K	52.96
339 K	60.35
342 K	68.6
345 K	77.77
348 K	87.96
351 K	99.24
354 K	111.7
357 K	125.44
359 K	135.37
